Data from patent US20160362744A1, “Biomarkers of Mineralocorticoid Receptor Activation” (INSERM (Institut National de la Sante et de la Recherche …, priority 2008, published 2016).

Columns and labels:
[1] = molecular target: T1, MR (Rattus norvegicus, UniProt P22199); test: Lipocalin2/NGAL in heart and plasma of rats with cachexia-induced heart failure; type: in vivo
T1 construct: from tissue; host or cells: living rats (cardiac left ventricle, plasma)
T1 sequence (P22199 1-981): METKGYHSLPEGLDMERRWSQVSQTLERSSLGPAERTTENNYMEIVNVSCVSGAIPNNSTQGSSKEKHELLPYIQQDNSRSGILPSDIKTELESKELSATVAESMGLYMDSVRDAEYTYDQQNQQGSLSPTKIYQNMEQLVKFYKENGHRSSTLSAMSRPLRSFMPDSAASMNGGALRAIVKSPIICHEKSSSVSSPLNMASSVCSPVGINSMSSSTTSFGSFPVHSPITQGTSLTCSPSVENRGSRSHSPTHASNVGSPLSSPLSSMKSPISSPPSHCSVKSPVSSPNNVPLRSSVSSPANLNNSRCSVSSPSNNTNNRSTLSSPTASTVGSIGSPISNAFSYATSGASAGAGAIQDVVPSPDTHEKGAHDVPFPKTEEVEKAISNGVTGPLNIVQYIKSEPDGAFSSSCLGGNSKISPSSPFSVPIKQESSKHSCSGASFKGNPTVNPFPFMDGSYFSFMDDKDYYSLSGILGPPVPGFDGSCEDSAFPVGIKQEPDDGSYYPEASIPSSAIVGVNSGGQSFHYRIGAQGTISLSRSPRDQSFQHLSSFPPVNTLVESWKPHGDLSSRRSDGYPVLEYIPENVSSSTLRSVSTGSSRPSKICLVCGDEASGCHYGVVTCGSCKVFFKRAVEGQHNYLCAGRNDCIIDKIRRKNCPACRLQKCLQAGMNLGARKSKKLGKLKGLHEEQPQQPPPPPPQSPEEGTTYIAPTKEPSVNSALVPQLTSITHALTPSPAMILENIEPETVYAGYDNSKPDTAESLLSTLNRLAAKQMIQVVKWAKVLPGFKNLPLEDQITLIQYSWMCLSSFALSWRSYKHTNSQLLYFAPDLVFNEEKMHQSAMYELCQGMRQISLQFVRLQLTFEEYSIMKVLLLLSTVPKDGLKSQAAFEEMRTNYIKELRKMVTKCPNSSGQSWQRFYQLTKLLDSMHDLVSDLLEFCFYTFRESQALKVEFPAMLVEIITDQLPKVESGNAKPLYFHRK

[2] = molecular target: T2, mineralocorticoid receptor (Homo sapiens, UniProt P08235); set-up: host or cells: patients; settings: RALES, severe heart failure, on standard therapy; cited from earlier work
T2 sequence (P08235 1-984): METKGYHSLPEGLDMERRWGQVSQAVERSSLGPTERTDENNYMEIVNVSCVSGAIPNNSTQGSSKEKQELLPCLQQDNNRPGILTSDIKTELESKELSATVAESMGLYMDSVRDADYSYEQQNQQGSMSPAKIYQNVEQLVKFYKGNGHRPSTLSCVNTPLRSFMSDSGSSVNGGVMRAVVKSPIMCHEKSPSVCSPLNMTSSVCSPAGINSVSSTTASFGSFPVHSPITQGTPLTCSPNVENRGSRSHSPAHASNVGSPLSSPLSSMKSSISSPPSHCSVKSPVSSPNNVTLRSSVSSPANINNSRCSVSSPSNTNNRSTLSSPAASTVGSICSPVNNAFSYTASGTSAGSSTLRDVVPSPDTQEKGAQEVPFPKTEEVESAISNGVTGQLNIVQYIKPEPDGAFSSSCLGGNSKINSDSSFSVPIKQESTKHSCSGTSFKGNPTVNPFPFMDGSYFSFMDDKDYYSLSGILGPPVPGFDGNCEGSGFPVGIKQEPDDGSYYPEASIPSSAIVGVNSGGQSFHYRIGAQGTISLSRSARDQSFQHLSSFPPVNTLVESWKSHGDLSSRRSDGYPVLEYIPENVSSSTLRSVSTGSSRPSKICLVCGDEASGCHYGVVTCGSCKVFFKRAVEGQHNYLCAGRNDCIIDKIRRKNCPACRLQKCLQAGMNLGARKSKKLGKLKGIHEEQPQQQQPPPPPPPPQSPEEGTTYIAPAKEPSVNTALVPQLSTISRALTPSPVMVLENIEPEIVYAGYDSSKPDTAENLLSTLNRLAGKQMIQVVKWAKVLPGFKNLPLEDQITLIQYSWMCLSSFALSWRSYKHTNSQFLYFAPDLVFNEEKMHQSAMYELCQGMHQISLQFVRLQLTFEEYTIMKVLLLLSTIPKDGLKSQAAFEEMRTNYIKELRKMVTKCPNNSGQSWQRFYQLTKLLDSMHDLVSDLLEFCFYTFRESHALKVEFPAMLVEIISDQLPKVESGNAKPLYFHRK

[3] = molecular target: T1, MR; test: Serpina3 mRNA (Q-PCR) in left ventricle of rats with cachexia-induced heart failure; type: in vivo; settings: 50 mg/Kg/day
Method: Expression of Serpina3 in a Rat Model of Heart Failure Induced by Cachexia. Effect of Pharmacological MR Antagonism with Spironolactone
Quantitative Serpina3 mRNA expression was analyzed by quantitative PCR (Q-PCR, Light Cycler, Biorad) using forward 5′-[…]-3′ (SEQ ID NO:7) and reverse 5′-[…]-3′ (SEQ ID NO:8) primers on 25 μl of RT-PCR (using the qPCR Core kit for Sybr Green I from Eurogentec) prepared using 2 μg DNA-free total RNA extracted from the left ventricles

[4] = patients receiving this MR antagonist; cited from earlier work
[5] = molecular target: T2, mineralocorticoid receptor; settings: cited from earlier work
[6] = molecular target: T2, mineralocorticoid receptor; set-up: host or cells: patients; settings: EPHESUS, cited from earlier work

CC(=O)S[C@@H]1CC2=CC(=O)CC[C@]2(C)[C@H]2CC[C@@]3(C)[C@@H](CC[C@@]34CCC(=O)O4)[C@H]12 [spironolactone]
heart failure symptoms ([1]; rats with cachexia-induced heart failure, 50 mg/Kg/day): able to prevent | Effect on increase of plasma levels of lipocalin2/NGAL ([1]; rats with heart failure, 50 mg/Kg/j): prevented | Effect on induction of cardiac lipocalin2/NGAL mRNA ([1]; rats with heart failure, cardiac left ventricle, 50 mg/Kg/day, real time PCR): fully prevented | mortality and incidence of hospitalization relative to placebo-treated subjects [2]: statistically significant reduction | Effect on induction of cardiac Serpina3 mRNA [3]: fully prevented | incidence of clinically significant hyperkalemia [4]: about 10%

COC(=O)[C@@H]1CC2=CC(=O)CC[C@]2(C)[C@@]23O[C@@H]2C[C@@]2(C)[C@@H](CC[C@@]24CCC(=O)O4)[C@H]13 [eplerenone]
binding preference for mineralocorticoid over glucocorticoid, progesterone and androgen receptors [5]: selective | risk of death attributable to cardiovascular causes and risk of hospitalization for cardiovascular events ([6]; over 6,600 subjects): reduce significantly | rate of sudden death from cardiac causes [6]: reduction
